Experimental data: patent US8513232B2, “Substituted spirocyclic piperidine derivatives as histamine-3 (H3) receptor ligands” (Cephalon, Inc., priority 2008, dated 2013)
Where two headings read alike, the source gives them in different places.

How the values were obtained:
human H3 receptor = target: T1, human H3 receptor (Homo sapiens, UniProt Q9Y5N1); assay: Human H3 radioligand binding ([3H]-N-alpha-methylhistamine, SPA)
T1 construct: expressed in transfected cells
Procedure, shortened: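 Compounds (0.01 nM-30 μM) competed with approximately 1 nM [3H]-N-alpha-methylhistamine for human H3 receptor in membranes of stably transfected CHO cells, 10 μg protein per well, in Tris-HCl pH 7.4/MgCl2/BSA buffer for 4 h at room temperature. Bound radioligand measured by scintillation proximity; 10 μM clobenpropit gave non-specific binding.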

[1] = target: T2, rat histamine H3 receptor (Rattus norvegicus, UniProt Q9QYN8); assay: Rat H3 radioligand binding ([3H]-N-alpha-methylhistamine, SPA)
T2 construct: encoding the entire 445-amino-acid rat histamine H3 receptor; expressed in transfected cells; membrane preparation
T2 sequence (Q9QYN8 whole entry): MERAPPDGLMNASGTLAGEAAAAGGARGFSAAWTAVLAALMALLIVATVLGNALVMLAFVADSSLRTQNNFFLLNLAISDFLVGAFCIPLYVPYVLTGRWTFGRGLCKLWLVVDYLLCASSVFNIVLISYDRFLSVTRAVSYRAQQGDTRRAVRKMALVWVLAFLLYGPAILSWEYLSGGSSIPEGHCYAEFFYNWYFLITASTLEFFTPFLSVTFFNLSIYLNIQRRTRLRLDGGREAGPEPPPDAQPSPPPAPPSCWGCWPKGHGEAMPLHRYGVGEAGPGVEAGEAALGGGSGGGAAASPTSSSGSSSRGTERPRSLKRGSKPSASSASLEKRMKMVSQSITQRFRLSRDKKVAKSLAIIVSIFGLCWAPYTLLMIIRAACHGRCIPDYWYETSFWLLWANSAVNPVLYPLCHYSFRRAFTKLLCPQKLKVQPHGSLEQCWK
Procedure, shortened: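 SPA-bead binding assay using [3H]-N-alpha-methylhistamine (approximately 1 nM final) with test compounds from 0.01 nM to 30 μM. Rat H3 receptor membranes came from stably transfected CHO-A3 cells; incubation ran 4 h at room temperature, in the dark, in Tris pH 7.4 buffer with MgCl2 and BSA. Clobenpropit (10 μM) gave non-specific binding.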

[2] = Table A, human H3 binding, read-out: Human Ki
[3] = Table A, rat H3 binding, read-out: Rat Ki
[4] = Human H3 binding, Table B, Examples 136-362, read-out: hum H3 binding Ki
[5] = Rat H3 binding, Table B, Examples 136-362, read-out: rat H3 binding Ki
[6] = human H3 binding, Table D, read-out: Human H3 Ki
[7] = rat H3 binding, Table D, read-out: Rat H3 Ki
[8] = Table C, human H3 binding, read-out: Human H3 Ki
[9] = Table C, rat H3 binding, read-out: Rat H3 Ki

T1 sequence (Q9Y5N1 whole entry): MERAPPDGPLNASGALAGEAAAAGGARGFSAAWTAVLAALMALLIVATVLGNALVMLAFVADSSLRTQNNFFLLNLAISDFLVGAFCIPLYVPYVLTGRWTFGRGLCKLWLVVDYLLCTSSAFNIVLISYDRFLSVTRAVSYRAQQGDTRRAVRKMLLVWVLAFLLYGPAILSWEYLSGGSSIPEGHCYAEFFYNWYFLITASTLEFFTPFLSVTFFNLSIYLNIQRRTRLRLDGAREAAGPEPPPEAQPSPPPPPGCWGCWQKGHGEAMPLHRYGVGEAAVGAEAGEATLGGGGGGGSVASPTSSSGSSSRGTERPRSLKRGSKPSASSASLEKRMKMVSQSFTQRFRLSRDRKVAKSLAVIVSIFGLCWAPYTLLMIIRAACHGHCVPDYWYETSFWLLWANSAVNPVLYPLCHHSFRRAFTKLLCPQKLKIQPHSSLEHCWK

| SMILES | melting point | Ki (human H3 receptor; [6]) [nM] | Ki [1, 7] [nM] | further results |
| --- | --- | --- | --- | --- |
| O=C(c1cccc(-c2ccc3c(c2)COC2(CCN(C4CCC4)CC2)O3)c1)N1CCCC1 [Example 57] | 221.7 °C |  |  | Ki (human H3 receptor; [2]): < 200 nM; Ki [1, 3]: < 200 nM |
| O=C(Nc1ccc2c(c1)COC1(CCN(C3CCC3)CC1)O2)C1CCOCC1 [Example 349] | 228 to 229 °C |  |  | Ki (human H3 receptor; [4]): < 200 nM; Ki [1, 5]: < 200 nM |
| Cc1cc(C(N)=O)cc(C)c1-c1ccc2c(c1)COC1(CCN(C3CCC3)CC1)O2 [Example 751] | 156 to 158 °C | < 200 | < 200 |  |
| OC(c1ccncc1)c1ccc2c(c1)COC1(CCN(C3CCC3)CC1)O2 (stereo not drawn) [Example 683] | 69 to 72 °C | < 200 | < 200 |  |
| CN(C)C(=O)CCc1ccc2c(c1)CCC1(CCN(C3CCC3)CC1)O2 [Example 603] | 180 to 182 °C | < 200 | < 200 |  |
| CNC(=O)c1cc(-c2ccc3c(c2)CCC2(CCN(C4CCC4)CC2)O3)ccc1Cl [Example 582] | 89 to 91 °C | < 200 | < 200 |  |
| CCc1cc(-c2ccc3c(c2)COC2(CCN(C4CCC4)CC2)O3)c(C)[nH]c1=O [Example 808] | 211 to 213 °C | < 200 | < 200 |  |
| c1cc2c(cc1N1CCNCC1)CCC1(CCN(C3CCC3)CC1)O2 [Example 377] | 116 to 118 °C |  |  | Ki (human H3 receptor; [8]): < 200 nM; Ki [1, 9]: < 200 nM |
| CCOC(=O)C1CCC(Oc2ccc3c(c2)CCC2(CCN(C4CCC4)CC2)O3)CC1 (stereo not drawn) [Example 456] | 236 to 238 °C |  |  | Ki (human H3 receptor; read-out: Human H3 Ki): < 200 nM; Ki ([1]; read-out: Rat H3 kI): < 200 nM |
| O=S1(=O)CCC(c2ccc3c(c2)COC2(CCN(C4CCC4)CC2)O3)C1 (stereo not drawn) [Example 491] | 151 to 152 °C |  |  | Ki (human H3 receptor; read-out: Human H3 Ki): < 200 nM; Ki ([1]; read-out: Rat H3 kI): < 200 nM |
| O=C(C1CC(O)(c2ccc3c(c2)CCC2(CCN(C4CCC4)CC2)O3)C1)N1CCCC1 (stereo not drawn) [Example 569] | 180 to 181 °C |  |  | Ki (human H3 receptor; read-out: Human H3 Ki): < 200 nM; Ki ([1]; read-out: Rat H3 kI): < 200 nM |
| CN1CCN(c2ccc3c(c2)CCC2(CCN(C4CCC4)CC2)O3)CC1 [Example 364] | 125 to 126 °C |  |  | Ki (human H3 receptor; [8]): < 200 nM; Ki [1, 9]: < 200 nM |
| Cc1cn(-c2ccc3c(c2)COC2(CCN(C4CCC4)CC2)O3)cc1CO [Example 87] | 133 to 135 °C |  |  | Ki (human H3 receptor; [2]): < 200 nM; Ki [1, 3]: < 200 nM |
| CCOC(=O)c1cncc(-c2ccc3c(c2)COC2(CCN(C4CCC4)CC2)O3)c1 [Example 59] | 239.2 °C |  |  | Ki (human H3 receptor; [2]): < 200 nM; Ki [1, 3]: < 200 nM |
| FC1(F)CCN(c2ccc3c(c2)COC2(CCN(C4CCC4)CC2)O3)CC1 [Example 422] | > 250 °C (dec.) |  |  | Ki (human H3 receptor; [8]): < 200 nM; Ki [1, 9]: 200 to 1000 nM |
| c1cc2c(cc1OCC1CCOC1)CCC1(CCN(C3CCC3)CC1)O2 (stereo not drawn) [Example 463] | 97 to 99 °C |  |  | Ki (human H3 receptor; read-out: Human H3 Ki): < 200 nM; Ki ([1]; read-out: Rat H3 kI): < 200 nM |
| CC(=O)N1CCCN(c2ccc3c(c2)CCC2(CCN(C4CCC4)CC2)O3)CC1 [Example 395] | 276 to 278 °C |  |  | Ki (human H3 receptor; [8]): < 200 nM; Ki [1, 9]: < 200 nM |
| COCC1CCN(c2ccc3c(c2)COC2(CCN(C4CCC4)CC2)O3)CC1 [Example 632] | 92.3 to 94.2 °C | < 200 | < 200 |  |
| COCCNC(=O)c1ccc(-c2ccc3c(c2)COC2(CCN(C4CCC4)CC2)O3)cc1F [Example 202] | 107 to 108.5 °C |  |  | Ki (human H3 receptor; [4]): < 200 nM; Ki [1, 5]: < 200 nM |
| CNC(=O)c1cn(-c2ccc3c(c2)COC2(CCN(C4CCC4)CC2)O3)cc1C [Example 86] | 149 to 153 °C |  |  | Ki (human H3 receptor; [2]): < 200 nM; Ki [1, 3]: < 200 nM |
| CCSc1c[nH]c(=O)cc1-c1ccc2c(c1)COC1(CCN(C3CCC3)CC1)O2 [Example 765] | 85 to 88 °C | < 200 | < 200 |  |
| NC(=O)COc1ccc2c(c1)CCC1(CCN(C3CCC3)CC1)O2 [Example 700] | 121 to 125 °C | < 200 | < 200 |  |
| O=C(c1ccco1)N1CCN(c2ccc3c(c2)CCC2(CCN(C4CCC4)CC2)O3)CC1 [Example 387] | 133 to 135 °C |  |  | Ki (human H3 receptor; [8]): < 200 nM; Ki [1, 9]: < 200 nM |
| c1cc2c(cc1O[C@H]1CCOC1)CCC1(CCN(C3CCC3)CC1)O2 [Example 450] | 259 to 261 °C |  |  | Ki (human H3 receptor; read-out: Human H3 Ki): < 200 nM; Ki ([1]; read-out: Rat H3 kI): < 200 nM |
| O=C(c1ccc(-c2ccc3c(c2)COC2(CCN(C4CCC4)CC2)O3)cc1F)N1CC[C@H](O)C1 [Example 192] | 99.5 to 100.5 °C |  |  | Ki (human H3 receptor; [4]): < 200 nM; Ki [1, 5]: < 200 nM |

| SMILES | melting point | Ki (human H3 receptor; [6]) [nM] | Ki [1, 7] [nM] | further results |
| --- | --- | --- | --- | --- |
| O=C1CC=C(c2ccc3c(c2)COC2(CCN(C4CCC4)CC2)O3)CC1 [Example 497] | 153 to 155 °C |  |  | Ki (human H3 receptor; read-out: Human H3 Ki): < 200 nM; Ki ([1]; read-out: Rat H3 kI): < 200 nM |
| FC1(F)CCN(c2ccc3c(c2)COC2(CCN(C4CCC4)CC2)O3)C1 [Example 423] | 217 to 221 °C |  |  | Ki (human H3 receptor; [8]): < 200 nM; Ki [1, 9]: < 200 nM |
| Cc1ccncc1-c1ccc2c(c1)COC1(CCN(C3CCC3)CC1)O2 [Example 745] | 200 to 202 °C | < 200 | < 200 |  |
| Cc1cc(-c2ccc3c(c2)COC2(CCN(C4CCC4)CC2)O3)ccc1C(=O)NCCO [Example 231] | 168.5 to 169.9 °C |  |  | Ki (human H3 receptor; [4]): < 200 nM; Ki [1, 5]: < 200 nM |
| O=C(NCCO)c1ccc(-c2cc(F)c3c(c2)COC2(CCN(C4CCC4)CC2)O3)cc1 [Example 141] | 145 to 147 °C |  |  | Ki (human H3 receptor; [4]): < 200 nM; Ki [1, 5]: < 200 nM |
| Cc1cccc(N2CCN(c3ccc4c(c3)CCC3(CCN(C5CCC5)CC3)O4)CC2)n1 [Example 366] | 159 to 161 °C |  |  | Ki (human H3 receptor; [8]): < 200 nM; Ki [1, 9]: < 200 nM |
| O=c1[nH]cc(-c2ccc3c(c2)COC2(CCN(C4CCC4)CC2)O3)cc1F [Example 727] | 200 to 202 °C | < 200 | < 200 |  |
| Cc1ccc(-c2ccc3c(c2)COC2(CCN(C4CCC4)CC2)O3)c(C)n1 [Example 748] | 190 to 192 °C | < 200 | < 200 |  |
| c1ccc(CNc2ccc3c(c2)COC2(CCN(C4CCC4)CC2)O3)cc1 [Example 305] | 85 to 87 °C |  |  | Ki (human H3 receptor; [4]): < 200 nM; Ki [1, 5]: < 200 nM |
| O=C(NC[C@@H]1CCCO1)c1ccc(-c2ccc3c(c2)COC2(CCN(C4CCC4)CC2)O3)cc1Cl [Example 585] | 159 to 161 °C | < 200 | < 200 |  |
| O=C1OCCN1c1ccc2c(c1)CCC1(CCN(C3CCC3)CC1)O2 [Example 119] | 186 to 188 °C |  |  | Ki (human H3 receptor; [2]): < 200 nM; Ki [1, 3]: < 200 nM |
| CCOCC1CCN(c2ccc3c(c2)CCC2(CCN(C4CCC4)CC2)O3)CC1 [Example 626] | 101.6 to 103.2 °C | < 200 | < 200 |  |
| CN(C)C(=O)NC1CCN(c2ccc3c(c2)COC2(CCN(C4CCC4)CC2)O3)CC1 [Example 329] | 193 to 195.2 °C |  |  | Ki (human H3 receptor; [4]): < 200 nM; Ki [1, 5]: < 200 nM |
| O=C(Nc1ccc2c(c1)COC1(CCN(C3CCC3)CC1)O2)c1cnccn1 [Example 304] | 173 to 175 °C |  |  | Ki (human H3 receptor; [4]): < 200 nM; Ki [1, 5]: < 200 nM |
| O=c1ccc(CCc2ccc3c(c2)COC2(CCN(C4CCC4)CC2)O3)c[nH]1 [Example 528] | 183 to 185 °C |  |  | Ki (human H3 receptor; read-out: Human H3 Ki): < 200 nM; Ki ([1]; read-out: Rat H3 kI): < 200 nM |
| O=C(C1CCN(c2ccc3c(c2)COC2(CCN(C4CCC4)CC2)O3)CC1)N1CCOCC1 [Example 468] | 282 to 284 °C |  |  | Ki (human H3 receptor; read-out: Human H3 Ki): < 200 nM; Ki ([1]; read-out: Rat H3 kI): < 200 nM |
| CN(C)C(=O)c1ccccc1Nc1ccc2c(c1)COC1(CCN(C3CCC3)CC1)O2 [Example 166] | 50 to 53 °C |  |  | Ki (human H3 receptor; [4]): < 200 nM; Ki [1, 5]: < 200 nM |
| COCCNC(=O)CCc1ccc2c(c1)COC1(CCN(C3CCC3)CC1)O2 [Example 644] | 68 to 70 °C | < 200 | 200 to 1000 |  |
| Cc1c(-c2ccc3c(c2)COC2(CCN(C4CCC4)CC2)O3)ccc(=O)n1C [Example 760] | 59 to 61 °C | < 200 | < 200 |  |
| CCOC1CCN(c2ccc3c(c2)CCC2(CCN(C4CCC4)CC2)O3)CC1 [Example 391] | 285 to 290 °C |  |  | Ki (human H3 receptor; [8]): < 200 nM; Ki [1, 9]: < 200 nM |
| N#Cc1ccc(C(=O)Nc2ccc3c(c2)COC2(CCN(C4CCC4)CC2)O3)cc1 [Example 154] | 206 to 208 °C |  |  | Ki (human H3 receptor; [4]): < 200 nM; Ki [1, 5]: < 200 nM |
| Cc1cccc(C)c1-c1ccc2c(c1)COC1(CCN(C3CCC3)CC1)O2 [Example 756] | 58 to 60 °C | < 200 | 200 to 1000 |  |
| Cc1cnc(-c2ccc3c(c2)COC2(CCN(C4CCC4)CC2)O3)c(C)n1 [Example 731] | 224 to 225 °C | < 200 | < 200 |  |
| CCOc1ccc(-c2ccc3c(c2)OC2(CCN(C4CCC4)CC2)OC3)cn1 [Example 95] | 54 °C |  |  | Ki (human H3 receptor; [2]): > 1000 nM; Ki [1, 3]: > 1000 nM |
| O=c1cc(-c2ccc3c(c2)COC2(CCN(C4CCC4)CC2)O3)c(Cl)cn1CC(F)(F)F [Example 781] | 194 to 197 °C | < 200 | < 200 |  |
